{"source": "patent US20140275090A1", "about": "“BILE ACID RECYCLING INHIBITORS FOR TREATMENT OF PRIMARY SCLEROSING CHOLANGITIS AND INFLAMMATORY BOWEL DISEASE” (Lumena Pharmaceuticals, Inc., priority 2013, published 2014)", "key": {"serum bile acids": {"tested_on": "serum bile acids", "assay": "Inhibition of the postprandial rise in SBA (AUC 0-240 min) in dogs, LUM001 compared to cholestyramine", "format": "in vivo, dog", "experimental": "LUM001 was dissolved in 0.2% Tween 80 at concentrations that required the administration of 0.2 ml dosing solution/kg of body weight at each dose tested. Cholestyramine was suspended in water at concentrations that required the administration of 2.5 ml/kg (500 mg/kg) and 1 ml/kg (200 mg/kg). The appropriate volume of solution formulation for each animal was placed into a gelatin capsule, Torpac Inc., size 13, Batch 594, East Hanover, N.J. and administered per os. Test compounds were administered as single oral doses to groups of dogs, 3 to 9 dogs per group at varying dosages. LUM001 was given at 0, 0.02, 0.05, 0.2, 0.6, 2, 5 or 15 mg/kg. Cholestyramine was administered at 200 or 500 mg/kg. […] No dog received any one compound dosage more than once. SBA was measured by an enzymatic assay. SBA values are expressed as μg of total bile acids/ml of serum."}, "[1]": {"tested_on": "Hepatic Cholesterol 7α-hydroxylase", "assay": "Cholesterol 7-α hydroxylase activity assay, hamster liver microsomes", "format": "in vivo, golden Syrian hamster", "details": "28 days", "excerpt": "Male golden Syrian hamsters (126-147 gm) were obtained from Charles Rivers Laboratories and were single housed in a constant temperature environment with alternating 12-hour light and dark cycles. Hamsters were fed Teklad 7001 rodent meal chow at libitum for two weeks before the experimental studies began and switched to Teklad 7001 rodent meal chow supplemented with 0.24% cholesterol on day one of the 28-day experiment. Water was continuously available to the animals. Hamsters were assigned to groups in a manner that normalized each group by pretreatment body weights. SD-5613 was dissolved in an aqueous solution of 0.2% (w/v) Tween 80 and administered Q.D. by intragastric gavage between 9 a.m. and 10 a.m. each morning using a syringe fitted with a flexible feeding tube. Blood samples were collected after 14- and 28-day treatment periods by orbital sinus and cardiac puncture, respectively. Hamsters were anesthetized but not fasted prior to blood collections. Fecal samples were collected during a 48-hour period at the end of days 14 and 28 (i.e. days 13-14 and 27-28). Hamsters were sacrificed using carbon dioxide asphyxiation to obtain the following tissue samples: liver, kidneys, colon and cecum.\nHomogenates of three gram liver tissue samples were prepared in 25 ml homogenization buffer [0.1 M potassium phosphate buffer, pH 7.2, containing 0.1 M sucrose, 50 mM KCl, 50 mM NaF, 5 mM ethylene glycol-bis(β-aminoethyl ether)-N,N,N′,N′-tetraacetic acid (EGTA), 1 mM EDTA, 3 mM dithiothreitol (DTIT), and 1 mM phenylmethylsulfonyl fluoride (PMSF)]. A microsomal fraction was prepared by centrifugation at 10,000×g for ten minutes. The supernatant was subjected to centrifugation at 105,000×g for two hours. The microsomal fraction was resuspended in a 0.1 M Na tetrapyrophosphate buffer (pH 10), with 50 mM NaF, and 1 mM EDTA, and subjected to centrifugation for one hour at 105,000×g. The microsomal fraction was resuspended in the homogenization buffer, and assayed for protein content by Coomassie Protein Plus Assay reagent.\nLiver microsomes (1 mg) or 7-α-hydroxycholesterol standard solutions were preincubated for five minutes at 37° C. in a rocking water bath with 500 μl 5× buffer, 1.7 ml water, and 50 μl 0.1% (w/v) cholesterol as substrate in excess. The 5× buffer consists of 0.42 M Na2HPO4, 0.25 mM NaF, 0.08 M KH2PO4, 5 mM EDTA and 10 mM DTT. The reaction tubes were incubated at 37° C. in a rocking water bath throughout the remainder of the assay protocol, with cessation of rocking only for the period of time needed to add solutions. After the preincubation period, 250 μl of 10 mM NADPH was added and incubated for 5 minutes to allow enzymatic conversion of the cholesterol substrate to 7-α-hydroxycholesterol by endogenous 7-α-hydroxylase. The reaction was stopped by addition of 75 μl of 20% sodium cholate. After four minutes, 25 μl of 100 μM 20-α-hydroxycholesterol was added to each tube as an internal recovery standard. The tubes were allowed to rock briefly in the water bath to mix, then 40 μl of 25 U/ml cholesterol oxidase was added and the tubes were incubated for ten minutes to convert 7-α-hydroxycholesterol and 20-α-hydroxycholesterol to their ketone forms, 7-α-hydroxycholesten-3-one and 20-α-hydroxycholesten-3-one. After the enzymatic reactions were completed, the ketone products were isolated by four sequential extractions in 20, 10, 10 and 10 ml petroleum ether, respectively. The collected volumes were evaporated to dryness under a flow of nitrogen gas between each extraction step using a heat block set at 50° C. The final dried samples were resuspended in 125 μl mobile phase solution consisting of 70:30 acetonitrile/methanol for analysis by reversed phase HPLC. Chromatography was performed on a 4.6×250 mm Beckman Ultrosphere ODS reverse phase column in mobile phase solution. […]"}, "[2]": {"assay": "Toxicokinetics of LUM001 free form, 13-week oral capsule toxicity study in dogs", "format": "in vivo, Beagle dog", "details": "13-wk dog capsule, 20 mg/kg", "experimental": "Six- to seven-month old Beagle dogs of body weights of 4.9-9.5 kg (4/sex/group) orally via capsules at 0, 5, 20 or 100 mg/kg for 13 consecutive weeks. Plasma levels of LUM001 (free form) were evaluated on Days 1 and 91. LUM001 was administered by once daily oral gelatin capsules. […] therefore, 105% of a stated dose is given to provide the appropriate amount of compound for dosing. On study Day 1 and Day 91, approximately 2 mL of venous blood was collected in heparinized tubes from the cephalic vein of each animal at 1, 2, 3, 5, 8, and 24 hours post-dose. Blood collection tubes were mixed and placed on ice during the collection period after which they were centrifuged and the plasma was harvested into cryotubes within approximately 60 minutes of blood collection. Plasma samples were stored at approximately −70° C. or lower until analyzed.\nThe concentration of LUM001 free form in plasma were determined using an LC/MS/MS method. The assay sensitivity was 5.00 ng/mL for a 100 mL sample."}}, "data": [{"smiles": "CCCCC1(CCCC)CS(=O)(=O)c2ccc(N(C)C)cc2[C@@H](c2ccc(OCc3ccc(C[N+]45CCN(CC4)CC5)cc3)cc2)[C@H]1O", "note": "[LUM001]", "values": [{"measurement": "inhibition of postprandial serum bile acids AUC compared to cholestyramine", "setting": "serum bile acids; cholestyramine 200 or 500 mg/kg, AUC 0-240 min", "value": "superior inhibition"}, {"measurement": "effect on serum bile acids", "setting": "serum bile acids; single oral doses 0.02-15 mg/kg", "value": "significantly decreased"}, {"measurement": "Hepatic Cholesterol 7α-hydroxylase", "setting": "[1]; 5 mg/kg/day", "value": "50.9 ± 4.8", "unit": "pmol/mg-port/min"}, {"measurement": "Hepatic Cholesterol 7α-hydroxylase, % change from vehicle group", "setting": "[1]; 5 mg/kg/day", "value": "(+52) %"}, {"measurement": "Hepatic Cholesterol 7α-hydroxylase", "setting": "[1]; 15 mg/kg/day", "value": "56.5 ± 4.5", "unit": "pmol/mg-port/min"}, {"measurement": "Hepatic Cholesterol 7α-hydroxylase, % change from vehicle group", "setting": "[1]; 15 mg/kg/day", "value": "(+69) %"}, {"measurement": "Hepatic Cholesterol 7α-hydroxylase", "setting": "[1]; 50 mg/kg/day", "value": "63.8 ± 5.6", "unit": "pmol/mg-port/min"}, {"measurement": "Hepatic Cholesterol 7α-hydroxylase, % change from vehicle group", "setting": "[1]; 50 mg/kg/day", "value": "(+90) %"}, {"measurement": "Cmax", "setting": "[2]; Day 1, Comb", "value": 25.1, "unit": "ng/mL"}, {"measurement": "Cmax", "setting": "[2]; Day 91, F", "value": 25.0, "unit": "ng/mL"}]}]}
